This passage reports T/C results from PubChem BioAssay AID192 (DTP/NCI, 2004).

The experiment relates to BDF1 mice, B16 melanoma ip, median survival T/C. Description: NCI In Vivo Anticancer Drug Screen. Data for tumor model B16 Melanoma (intraperitoneal) in B6D2F1 (BDF1) mice. To be noted: endpoint: median survival time, higher = longer survival. In short, it runs like this: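 Each result divides a survival or tumor-size measurement in the compound-treated group by the same measurement in the vehicle group.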

The mark [1] stands for this setting: dose: 100.0 mg/kg/injection, schedule: Q01DX009 (ip), vehicle: Klucel (hydroxypropylcellulose) (HPC).
The mark [2] stands for this setting: dose: 200.0 mg/kg/injection, schedule: Q01DX009 (ip), vehicle: Klucel (hydroxypropylcellulose) (HPC).
The mark [3] stands for this setting: dose: 400.0 mg/kg/injection, schedule: Q01DX009 (ip), vehicle: Klucel (hydroxypropylcellulose) (HPC).
Setting [4] is: dose: 12.5 mg/kg/injection, schedule: Q01DX009 (ip), vehicle: water.
The mark [5] stands for this setting: dose: 25.0 mg/kg/injection, schedule: Q01DX009 (ip), vehicle: water.
Where [6] appears, read: dose: 50.0 mg/kg/injection, schedule: Q01DX009 (ip), vehicle: water.
The mark [7] stands for this setting: dose: 25.0 mg/kg/injection, schedule: Q01DX009 (ip), vehicle: saline with Tween-80.
The mark [8] stands for this setting: dose: 25.0 mg/kg/injection, schedule: Q01DX009 (ip), vehicle: Klucel (hydroxypropylcellulose) (HPC).
Where [9] appears, read: dose: 50.0 mg/kg/injection, schedule: Q01DX009 (ip), vehicle: Klucel (hydroxypropylcellulose) (HPC).
[10] abbreviates: dose: 100.0 mg/kg/injection, schedule: Q04DX003 (ip), vehicle: Klucel (hydroxypropylcellulose) (HPC).
Where [11] appears, read: dose: 200.0 mg/kg/injection, schedule: Q04DX003 (ip), vehicle: Klucel (hydroxypropylcellulose) (HPC).
Setting [12] is: dose: 400.0 mg/kg/injection, schedule: Q04DX003 (ip), vehicle: Klucel (hydroxypropylcellulose) (HPC).
Setting [13] is: dose: 100.0 mg/kg/injection, schedule: Q01DX009 (ip), vehicle: saline with Tween-80.
[14] abbreviates: dose: 6.25 mg/kg/injection, schedule: Q04DX003 (ip), vehicle: saline with Tween-80.

Inconclusive results and toxic doses are left out.

`CCOC(=O)NC1=C(N2CC2)C(=O)C(NC(=O)OCC)=C(N2CC2)C1=O`: the T/C is 96 % of control (dose: 0.13 mg/kg/injection, schedule: Q03HX016 (ip), vehicle: water); 100 % of control (dose: 0.25 mg/kg/injection, schedule: Q01DX009 (ip), vehicle: saline); 93 % of control (dose: 0.25 mg/kg/injection, schedule: Q03HX016 (ip), vehicle: water); 110 % of control (dose: 0.5 mg/kg/injection, schedule: Q01DX009 (ip), vehicle: saline); 120 % of control (dose: 0.75 mg/kg/injection, schedule: Q01DX009 (ip), vehicle: saline); 96 % of control (dose: 1.0 mg/kg/injection, schedule: Q01DX001 (oral), vehicle: water). For the same molecule, the T/C is, setting by setting: (dose: 1.0 mg/kg/injection, schedule: Q03HX024 (ip), vehicle: water) 91 % of control; (dose: 3.0 mg/kg/injection, schedule: Q01DX009 (ip), vehicle: saline with Tween-80) 162 % of control; (dose: 3.0 mg/kg/injection, schedule: Q01DX009 (ip), vehicle: saline) 160 % of control; (dose: 5.0 mg/kg/injection, schedule: Q01DX005 (ip), vehicle: saline with Tween-80) 194 % of control; (dose: 16.0 mg/kg/injection, schedule: Q01DX009 (oral), vehicle: water) 86 % of control.

Turning to `CC1C=CCC(C)(C)C1` (stereo not drawn), the T/C is 96 % of control (dose: 50.0 mg/kg/injection, schedule: Q01DX009 (ip), vehicle: other); 111 % of control under setting [1]; 92 % of control (dose: 100.0 mg/kg/injection, schedule: Q01DX009 (ip), vehicle: other); 88 % of control (dose: 100.0 mg/kg/injection, schedule: Q04DX003 (ip), vehicle: saline); 104 % of control under setting [2]; 97 % of control (dose: 200.0 mg/kg/injection, schedule: Q04DX003 (ip), vehicle: saline). Further, the T/C was 105 % of control under setting [3] and 90 % of control (dose: 400.0 mg/kg/injection, schedule: Q04DX003 (ip), vehicle: saline).

Regarding `CC(=O)C(=O)C1=C2CCCN2CCc2cc3c(cc21)OCO3`, the T/C is, setting by setting: under setting [4], 93 % of control; under setting [5], 98 % of control; under setting [6], 117 % of control; (dose: 100.0 mg/kg/injection, schedule: Q01DX009 (ip), vehicle: water) 89 % of control.

Take `CC1OC(C)(C)OC1C(=O)O` (stereo not drawn): the T/C is, setting by setting: (dose: 6.25 mg/kg/injection, schedule: Q01DX009 (ip), vehicle: water) 96 % of control; under setting [4], 119 % of control; under setting [5], 104 % of control; under setting [6], 105 % of control.

In the case of `CCc1nc2cc(C)c(C)cc2[nH]1`, the T/C is 106 % of control (dose: 12.5 mg/kg/injection, schedule: Q01DX009 (ip), vehicle: saline with Tween-80); 104 % of control under setting [7]; 104 % of control (dose: 50.0 mg/kg/injection, schedule: Q01DX009 (ip), vehicle: saline with Tween-80).

`Cc1cccc(Cl)c1NC(=O)Cn1cccc1`: the T/C runs as follows: under setting [8], 108 % of control; under setting [9], 108 % of control; under setting [1], 118 % of control.

On to `Cc1ccc(S(=O)(=O)N=S2CCCC2)cc1`, for which the T/C (dose: 50.0 mg/kg/injection, schedule: Q04DX003 (ip), vehicle: Klucel (hydroxypropylcellulose) (HPC)) was 100 % of control; the T/C under setting [10] is 102 % of control; the T/C under setting [11] is 103 % of control; the T/C under setting [12] was 102 % of control.

As to `Cc1ccc(-c2cc(-c3ccccc3)no2)cc1`, the T/C was 94 % of control under setting [10], 100 % of control under setting [11] and 94 % of control under setting [12].

For `O=C(Nc1ccc(C(=O)Nc2cc(S(=O)(=O)O)cc3cc(S(=O)(=O)O)cc(O)c23)cc1)c1ccccc1`, the T/C under setting [13] was 94 % of control; the T/C (dose: 200.0 mg/kg/injection, schedule: Q01DX009 (ip), vehicle: saline with Tween-80) was 89 % of control; the T/C (dose: 400.0 mg/kg/injection, schedule: Q01DX009 (ip), vehicle: saline with Tween-80) is 89 % of control.

As for `O=[N+]([O-])c1cccc(C(O)C=C(C(F)(F)F)C(F)(F)F)c1` (stereo not drawn), the T/C was 93 % of control under setting [7] and 86 % of control under setting [13].

With `ClCCN(CCCl)CCCN1c2ccccc2Sc2ccccc21`, the T/C (dose: 3.12 mg/kg/injection, schedule: Q04DX003 (ip), vehicle: saline with Tween-80) was 109 % of control and the T/C under setting [14] is 97 % of control.

`C=C1N(C)c2ccc(Cl)cc2C1(C)C`: the T/C by setting is: (dose: 12.5 mg/kg/injection, schedule: Q01DX009 (ip), vehicle: Klucel (hydroxypropylcellulose) (HPC)) 90 % of control; under setting [8], 90 % of control; under setting [9], 88 % of control; under setting [1], 87 % of control.

As for `NC(CSCc1ccccc1)C(=O)O` (stereo not drawn), the T/C under setting [8] is 98 % of control; the T/C under setting [9] is 106 % of control; the T/C under setting [1] is 102 % of control; the T/C under setting [2] was 98 % of control; the T/C under setting [3] is 117 % of control.

`O=NN(CCF)C(=O)NC1CCCCC1`: the T/C is, setting by setting: (dose: 7.5 mg/kg/injection, schedule: Q01DX001 (ip), vehicle: saline + alcohol) 115 % of control; (dose: 15.0 mg/kg/injection, schedule: Q01DX001 (ip), vehicle: saline + alcohol) 106 % of control; (dose: 30.0 mg/kg/injection, schedule: Q01DX001 (ip), vehicle: saline + alcohol) 119 % of control; (dose: 60.0 mg/kg/injection, schedule: Q01DX001 (ip), vehicle: saline + alcohol) 171 % of control; (dose: 120.0 mg/kg/injection, schedule: Q01DX001 (ip), vehicle: saline + alcohol) 166 % of control.

Take `CC(O)(C(=O)O)c1ccccc1` (stereo not drawn) (tested in a mixture with another compound): the T/C reads like this: under setting [1], 94 % of control; under setting [2], 105 % of control; under setting [3], 97 % of control.

On to `Cc1ccc(C)c(C2NC(=O)c3ccccc3N2)c1` (stereo not drawn), for which the T/C under setting [1] is 121 % of control and the T/C under setting [2] was 115 % of control.

On to `Cl/C(=N\Nc1ccccc1)c1ccccc1`, for which the T/C (dose: 1.56 mg/kg/injection, schedule: Q01DX009 (ip), vehicle: Klucel (hydroxypropylcellulose) (HPC)) was 97 % of control; the T/C (dose: 3.13 mg/kg/injection, schedule: Q01DX009 (ip), vehicle: Klucel (hydroxypropylcellulose) (HPC)) is 86 % of control; the T/C (dose: 6.25 mg/kg/injection, schedule: Q01DX009 (ip), vehicle: Klucel (hydroxypropylcellulose) (HPC)) is 90 % of control.

Consider `COc1cc(O)c2c(O)c3c(c4c2c1[C@]1(C4)C(C)=CCCC1(C)C)[C@H](O)[C@@]1(O)CC(=O)C(C(N)=O)=C(O)[C@@]1(O)C3=O`, for which the T/C is, setting by setting: (dose: 6.0 mg/kg/injection, schedule: Q01DX009 (ip), vehicle: saline with Tween-80) 97 % of control; under setting [14], 112 % of control; (dose: 12.5 mg/kg/injection, schedule: Q04DX003 (ip), vehicle: saline with Tween-80) 116 % of control; (dose: 25.0 mg/kg/injection, schedule: Q04DX003 (ip), vehicle: saline with Tween-80) 121 % of control.

Take `CCC(=O)c1cc([N+](=O)[O-])ccc1NC(C)=O`: the T/C was 101 % of control under setting [1], 107 % of control under setting [2] and 109 % of control under setting [3].

On to `CCC(C)C1CCCCC1` (stereo not drawn), for which the T/C by setting is: under setting [1], 91 % of control; under setting [2], 108 % of control; under setting [3], 98 % of control.

As for `CN1C(=O)C=CC1=O`, the T/C is, setting by setting: (dose: 0.5 mg/kg/injection, schedule: Q02DX009 (ip), vehicle: saline) 109 % of control; (dose: 1.0 mg/kg/injection, schedule: Q02DX009 (ip), vehicle: saline) 99 % of control; (dose: 2.0 mg/kg/injection, schedule: Q02DX009 (ip), vehicle: saline) 98 % of control; (dose: 4.0 mg/kg/injection, schedule: Q02DX009 (ip), vehicle: saline) 90 % of control.
